Source: patent US20070128217A1 (priority 2003, published 2007)

Key:
[1] = test system: antibodies in sera from SARS patients (sera 1a, 1b, 2, 6, 37, 62, London, SARS-yellow, SARS-green); assay type: binding, human; design: Binding of serum 6 to linear peptides of protein X1 of SARS-CoV Urbani / Binding of serum 37 to linear peptides of protein X1 of SARS-CoV Urbani / Binding of serum 6 to looped/cyclic peptide (PEPSCAN-ELISA) / Binding of serum 37 to looped/cyclic peptide (PEPSCAN-ELISA) / Binding of serum 37 to looped/cyclic peptides of protein X1 of SARS-CoV Urbani / Binding of serum 6 to linear peptides of protein X2 / Binding of serum 37 to linear peptides of protein X2 / Binding of serum 37 to looped/cyclic peptides of protein X2 of SARS-CoV Urbani / Binding of serum 6 to linear peptides of protein M of SARS-CoV Urbani / Binding of serum 37 to linear peptides of protein M of SARS-CoV Urbani / Binding of serum 6 to looped/cyclic peptides of protein M of SARS-CoV Urbani / Binding of serum 37 to looped/cyclic peptides of protein M of SARS-CoV Urbani / Binding of serum 6 to linear peptides of protein X3 of SARS-CoV Urbani / Binding of serum 37 to linear peptides of protein X3 of SARS-CoV Urbani / Binding of serum 37 to looped/cyclic peptides of protein X3 of SARS-CoV Urbani / Binding of serum 6 to linear peptides of protein X4 of SARS-CoV Urbani / Binding of serum 37 to linear peptides of protein X4 of SARS-CoV Urbani / Binding of serum 37 to looped/cyclic peptides of protein X4 of SARS-CoV Urbani / Binding of serum 6 to linear peptides of protein X5 of SARS-CoV Urbani / Binding of serum 37 to linear peptides of protein X5 of SARS-CoV Urbani / Binding of serum 37 to looped/cyclic peptides of protein X5 of SARS-CoV Urbani / Binding of serum 6 to linear peptides of protein N of SARS-CoV Urbani / Binding of serum 37 to linear peptides of protein N of SARS-CoV Urbani / Binding of serum 6 to linear peptide (PEPSCAN-ELISA) / Binding of serum 1a to looped/cyclic peptides of protein N of SARS-CoV Urbani / Binding of serum 1b to looped/cyclic peptides of protein N of SARS-CoV Urbani / Binding of serum 2 to looped/cyclic peptides of protein N of SARS-CoV Urbani / Binding of serum 6 to looped/cyclic peptides of protein N of SARS-CoV Urbani / Binding of serum 37 to looped/cyclic peptides of protein N of SARS-CoV Urbani / Binding of serum 62 to looped/cyclic peptides of protein N of SARS-CoV Urbani / Binding of serum London to looped/cyclic peptides of protein N of SARS-CoV Urbani / Binding of serum SARS-green to looped/cyclic peptides of protein N of SARS-CoV Urbani: unit not given here
[2] = test system: control sera (pooled serum of ten healthy LUMC hospital workers; commercial negative donor pooled serum from the Dutch bloodbank); assay type: binding, human; design: Binding of Control serum LUMC to linear peptides / Binding of Control serum Blood-bank to linear peptides / Binding of Control serum LUMC to looped peptides / Binding of Control Serum Blood-Bank to Looped peptides / Binding of Control serum LUMC to linear peptides of the protein M of SARS-CoV Urbani / Binding of Control serum Blood-bank to linear peptides of the protein M of SARS-CoV Urbani / Binding of Control serum LUMC to looped peptides of the protein M of SARS-CoV Urbani / Binding of Control Serum Blood-Bank to Looped peptides of the protein M of SARS-CoV Urbani: unit not given here
[3] = test system: rabbit serum obtained by immunizing a rabbit with the SARS-CoV strain Frankfurt 1; assay type: binding; design: Binding of a rabbit serum to linear peptides / Binding of a rabbit serum to looped peptides / Rabbit serum linear peptides / Rabbit serum looped peptides / Binding of a rabbit serum to linear peptides of protein N of SARS-CoV Urbani (Rabbit serum linear peptides) / Binding of a rabbit serum to looped/cyclic peptides of protein N of SARS-CoV Urbani (Rabbit serum looped peptides): unit not given here

## PKLFIRQEEVQQELY
[1]
  Binding of serum 1a to linear peptides of protein X4 of SARS-CoV Urbani: 0.7
  Binding of serum 1a to looped/cyclic peptides of protein X4 of SARS-CoV Urbani: 0.8
  Binding of serum 1b to linear peptides of protein X4 of SARS-CoV Urbani: 0.6
  Binding of serum 1b to looped/cyclic peptides of protein X4 of SARS-CoV Urbani: 0.6
  Binding of serum 2 to linear peptides of protein X4 of SARS-CoV Urbani: 0.4
  Binding of serum 2 to looped/cyclic peptides of protein X4 of SARS-CoV Urbani: 0.5
  Binding of serum 6 to linear peptides of protein X4 of SARS-CoV Urbani: 0.5
  Binding of serum 6 to looped/cyclic peptides of protein X4 of SARS-CoV Urbani: 0.5
  Binding of serum 37 to linear peptides of protein X4 of SARS-CoV Urbani: 0.8
  Binding of serum 37 to looped/cyclic peptides of protein X4 of SARS-CoV Urbani: 0.7
  Binding of serum 62 to linear peptides of protein X4 of SARS-CoV Urbani: 0.8
  Binding of serum 62 to looped/cyclic peptides of protein X4 of SARS-CoV Urbani: 0.6
  Binding of serum London to linear peptides of protein X4 of SARS-CoV Urbani: 0.8
  Binding of serum London to looped/cyclic peptides of protein X4 of SARS-CoV Urbani: 0.4
  Binding of serum SARS-green to linear peptides of protein X4 of SARS-CoV Urbani: 0.7
  Binding of serum SARS-green to looped/cyclic peptides of protein X4 of SARS-CoV Urbani: 0.5
  Binding of serum SARS-yellow to linear peptides of protein X4 of SARS-CoV Urbani: 0.8
  Binding of serum SARS-yellow to looped/cyclic peptides of protein X4 of SARS-CoV Urbani: 0.4
[2]
  Binding of Control Serum Blood-Bank to Looped peptides: 0.6
  Binding of Control serum Blood-bank to linear peptides: 0.7
  Binding of Control serum LUMC to linear peptides: 0.5
  Binding of Control serum LUMC to looped peptides: 0.7
[3]
  Rabbit serum linear peptides: 0.4
  Rabbit serum looped peptides: 0.4

## TLACFVLAAVYRINW
[1]
  Binding of serum 1a to linear peptides of protein M of SARS-CoV Urbani: 0.7
  Binding of serum 1a to looped/cyclic peptides of protein M of SARS-CoV Urbani: 0.7
  Binding of serum 1b to linear peptides of protein M of SARS-CoV Urbani: 0.5
  Binding of serum 1b to looped/cyclic peptides of protein M of SARS-CoV Urbani: 0.5
  Binding of serum 2 to linear peptides of protein M of SARS-CoV Urbani: 0.5
  Binding of serum 2 to looped/cyclic peptides of protein M of SARS-CoV Urbani: 0.6
  Binding of serum 6 to linear peptides of protein M of SARS-CoV Urbani: 0.3
  Binding of serum 6 to looped/cyclic peptides of protein M of SARS-CoV Urbani: 0.7
  Binding of serum 37 to linear peptides of protein M of SARS-CoV Urbani: 0.8
  Binding of serum 37 to looped/cyclic peptides of protein M of SARS-CoV Urbani: 0.6
  Binding of serum 62 to linear peptides of protein M of SARS-CoV Urbani: 0.8
  Binding of serum 62 to looped/cyclic peptides of protein M of SARS-CoV Urbani: 0.6
  Binding of serum London to linear peptides of protein M of SARS-CoV Urbani: 0.3
  Binding of serum London to looped/cyclic peptides of protein M of SARS-CoV Urbani: 0.3
  Binding of serum SARS-green to linear peptides of protein M of SARS-CoV Urbani: 0.3
  Binding of serum SARS-green to looped/cyclic peptides of protein M of SARS-CoV Urbani: 0.2
  Binding of serum SARS-yellow to linear peptides of protein M of SARS-CoV Urbani: 0.0
  Binding of serum SARS-yellow to looped/cyclic peptides of protein M of SARS-CoV Urbani: 0.5
[2]
  Binding of Control Serum Blood-Bank to Looped peptides of the protein M of SARS-CoV Urbani: 0.8
  Binding of Control serum Blood-bank to linear peptides of the protein M of SARS-CoV Urbani: 0.5
  Binding of Control serum LUMC to linear peptides of the protein M of SARS-CoV Urbani: 0.2
  Binding of Control serum LUMC to looped peptides of the protein M of SARS-CoV Urbani: 0.7
[3]
  Rabbit serum linear peptides: 0.5
  Rabbit serum looped peptides: 0.1
